# Key:
# [1] = target: T1, GRK1 (Homo sapiens, UniProt Q15835); assay: KinomeScan; assay type: binding; details: read-out: % control
# T1 construct: purchased DiscoveRx KINOMEscan
# [2] = target: T2, WNK3 (Homo sapiens, UniProt Q9BYP7); assay: KinomeScan; assay type: binding; details: read-out: % control
# T2 construct: purchased DiscoveRx KINOMEscan
# [3] = target: T3, MST1 (Homo sapiens, UniProt Q13043); assay: KinomeScan; assay type: binding; details: read-out: % control
# T3 construct: purchased DiscoveRx KINOMEscan
# [4] = target: T4, DYRK1B (Homo sapiens, UniProt Q9Y463); assay: KinomeScan; assay type: binding; details: read-out: % control
# T4 construct: purchased DiscoveRx KINOMEscan
# [5] = tested on: BaF3-TEL-EGFR-T790M; assay: Anti-proliferation, BaF3 isogenic cell lines (CellTiter-Glo); assay type: cell-based; details: Mus musculus, 72 hours, triplet testing
# [6] = target: T5, RET (Homo sapiens, UniProt P07949); assay: KinomeScan; assay type: binding; details: read-out: % control
# T5 construct: purchased DiscoveRx KINOMEscan
# T5 sequence (P07949 29-1114): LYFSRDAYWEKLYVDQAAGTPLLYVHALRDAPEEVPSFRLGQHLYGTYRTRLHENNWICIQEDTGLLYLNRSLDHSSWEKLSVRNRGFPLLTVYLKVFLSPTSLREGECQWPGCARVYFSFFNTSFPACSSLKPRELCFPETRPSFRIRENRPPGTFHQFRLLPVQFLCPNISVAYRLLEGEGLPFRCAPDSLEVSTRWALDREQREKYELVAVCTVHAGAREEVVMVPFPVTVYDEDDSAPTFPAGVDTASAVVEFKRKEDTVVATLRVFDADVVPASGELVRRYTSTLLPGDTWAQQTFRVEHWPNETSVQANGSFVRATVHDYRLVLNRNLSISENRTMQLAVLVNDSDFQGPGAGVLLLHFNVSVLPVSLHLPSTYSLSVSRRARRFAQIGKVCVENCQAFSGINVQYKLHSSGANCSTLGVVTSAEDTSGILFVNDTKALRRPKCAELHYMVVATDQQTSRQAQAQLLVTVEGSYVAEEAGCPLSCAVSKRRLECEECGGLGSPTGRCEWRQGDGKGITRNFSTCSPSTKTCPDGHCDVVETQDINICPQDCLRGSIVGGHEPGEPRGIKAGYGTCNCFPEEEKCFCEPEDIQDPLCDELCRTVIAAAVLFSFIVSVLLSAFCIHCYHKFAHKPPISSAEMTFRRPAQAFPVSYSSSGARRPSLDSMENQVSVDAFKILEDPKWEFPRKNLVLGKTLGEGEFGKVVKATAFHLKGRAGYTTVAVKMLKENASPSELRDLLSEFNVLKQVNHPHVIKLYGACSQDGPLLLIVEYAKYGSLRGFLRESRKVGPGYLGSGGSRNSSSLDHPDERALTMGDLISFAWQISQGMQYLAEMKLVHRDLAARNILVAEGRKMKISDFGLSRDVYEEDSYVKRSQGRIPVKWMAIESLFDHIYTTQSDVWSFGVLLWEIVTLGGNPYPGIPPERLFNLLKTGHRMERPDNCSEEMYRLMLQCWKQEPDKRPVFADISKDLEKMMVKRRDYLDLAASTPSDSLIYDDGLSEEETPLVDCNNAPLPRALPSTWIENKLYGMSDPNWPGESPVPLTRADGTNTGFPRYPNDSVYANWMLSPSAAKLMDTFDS
# [7] = target: T6, IRAK3 (Homo sapiens, UniProt Q9Y616); assay: KinomeScan; assay type: binding; details: read-out: % control
# T6 construct: purchased DiscoveRx KINOMEscan
# T6 sequence (Q9Y616 whole entry): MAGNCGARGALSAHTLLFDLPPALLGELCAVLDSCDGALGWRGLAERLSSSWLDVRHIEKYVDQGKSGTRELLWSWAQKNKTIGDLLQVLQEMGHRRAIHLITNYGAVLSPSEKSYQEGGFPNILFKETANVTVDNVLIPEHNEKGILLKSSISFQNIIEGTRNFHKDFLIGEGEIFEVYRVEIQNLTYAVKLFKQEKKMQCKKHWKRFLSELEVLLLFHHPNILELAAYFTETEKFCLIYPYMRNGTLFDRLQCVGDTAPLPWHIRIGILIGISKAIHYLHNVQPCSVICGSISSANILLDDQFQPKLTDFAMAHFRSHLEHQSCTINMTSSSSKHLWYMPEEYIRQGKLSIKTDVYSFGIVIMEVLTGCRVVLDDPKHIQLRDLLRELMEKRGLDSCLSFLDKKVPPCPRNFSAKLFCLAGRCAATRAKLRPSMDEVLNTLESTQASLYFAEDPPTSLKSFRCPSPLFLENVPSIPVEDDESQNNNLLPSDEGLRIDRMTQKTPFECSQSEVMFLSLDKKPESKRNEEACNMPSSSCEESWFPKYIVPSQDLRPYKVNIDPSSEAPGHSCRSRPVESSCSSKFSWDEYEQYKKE
# [8] = target: T7, MARK4 (Homo sapiens, UniProt Q96L34); assay: KinomeScan; assay type: binding; details: read-out: % control
# T7 construct: purchased DiscoveRx KINOMEscan
# [9] = target: T8, MKNK2 (Homo sapiens, UniProt Q9HBH9); assay: KinomeScan; assay type: binding; details: read-out: % control
# T8 construct: purchased DiscoveRx KINOMEscan
# [10] = target: T9, KIT(L576P) (Homo sapiens, UniProt P10721, L576P); assay: KinomeScan; assay type: binding; details: read-out: % control
# T9 construct: purchased DiscoveRx KINOMEscan
# [11] = target: T10, DDR2 (Homo sapiens, UniProt Q16832); assay: KinomeScan; assay type: binding; details: read-out: % control
# T10 construct: purchased DiscoveRx KINOMEscan
# T10 sequence (Q16832 22-855): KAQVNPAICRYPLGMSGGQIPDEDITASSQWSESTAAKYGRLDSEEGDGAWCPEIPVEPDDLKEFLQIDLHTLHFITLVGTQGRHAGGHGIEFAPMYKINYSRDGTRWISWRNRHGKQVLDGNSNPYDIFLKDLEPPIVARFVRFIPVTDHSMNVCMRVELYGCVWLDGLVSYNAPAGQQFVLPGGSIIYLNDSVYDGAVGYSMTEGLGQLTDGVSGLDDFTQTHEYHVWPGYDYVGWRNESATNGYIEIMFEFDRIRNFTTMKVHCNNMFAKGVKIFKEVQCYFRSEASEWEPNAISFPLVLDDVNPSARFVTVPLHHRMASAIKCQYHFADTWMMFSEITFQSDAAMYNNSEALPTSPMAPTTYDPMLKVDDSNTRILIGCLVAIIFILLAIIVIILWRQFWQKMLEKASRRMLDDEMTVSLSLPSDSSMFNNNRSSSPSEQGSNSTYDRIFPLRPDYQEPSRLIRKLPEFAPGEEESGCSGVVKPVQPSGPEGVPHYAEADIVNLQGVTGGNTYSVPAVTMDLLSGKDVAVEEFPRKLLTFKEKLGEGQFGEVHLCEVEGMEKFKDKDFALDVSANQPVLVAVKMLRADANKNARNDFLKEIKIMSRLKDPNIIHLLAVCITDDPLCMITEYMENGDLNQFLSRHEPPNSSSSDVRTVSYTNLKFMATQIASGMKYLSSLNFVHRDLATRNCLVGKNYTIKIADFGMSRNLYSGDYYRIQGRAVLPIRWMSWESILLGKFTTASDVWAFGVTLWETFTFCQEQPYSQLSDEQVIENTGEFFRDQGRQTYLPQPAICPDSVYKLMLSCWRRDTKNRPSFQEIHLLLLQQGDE
# [12] = target: T11, TSSK3 (Homo sapiens, UniProt Q96PN8); assay: KinomeScan; assay type: binding; details: read-out: % control
# T11 construct: purchased DiscoveRx KINOMEscan
# [13] = target: T12, VRK2 (Homo sapiens, UniProt Q86Y07); assay: KinomeScan; assay type: binding; details: read-out: % control
# T12 construct: purchased DiscoveRx KINOMEscan
# [14] = target: T13, AXL (Homo sapiens, UniProt P30530); assay: KinomeScan; assay type: binding; details: read-out: % control
# T13 construct: purchased DiscoveRx KINOMEscan
# [15] = target: T14, FGFR4 (Homo sapiens, UniProt P22455); assay: KinomeScan; assay type: binding; details: read-out: % control
# T14 construct: purchased DiscoveRx KINOMEscan
# [16] = target: T15, KIT(D816H) (Homo sapiens, UniProt P10721, D816H); assay: KinomeScan; assay type: binding; details: read-out: % control
# T15 construct: purchased DiscoveRx KINOMEscan
# [17] = target: T16, EPHB3 (Homo sapiens, UniProt P54753); assay: KinomeScan; assay type: binding; details: read-out: % control
# T16 construct: purchased DiscoveRx KINOMEscan
# [18] = target: T17, ERK3 (Homo sapiens, UniProt Q16659); assay: KinomeScan; assay type: binding; details: read-out: % control
# T17 construct: purchased DiscoveRx KINOMEscan
# [19] = tested on: CHO; assay: Anti-proliferation, normal cells (CellTiter-Glo); details: Cricetulus griseus, 72 h
# Method: Cells were grown in 96-well culture plates (2500-3000/well). For adherent cell lines, compounds of various concentrations were added into the plates after cells were cultured for 12 hours. Cell proliferation was determined after treatment with compounds for 72 hours. Cell viability was measured using the CellTiter–Glo assay (Promega, USA) according to the manufacturer's instructions, and luminescence was measured in a multi-label reader (Envision, PerkinElmer, USA). Data were normalized to control groups (DMSO) and represented by the mean of three independent measurements with standard error <20%. GI50 values were calculated using Prism 5.0 (GraphPad Software, San Diego, CA).
# [20] = target: T18, ACVR2B (Homo sapiens, UniProt Q13705); assay: KinomeScan; assay type: binding; details: read-out: % control
# T18 construct: purchased DiscoveRx KINOMEscan
# [21] = target: T19, ABL1(T315I)-nonphosphorylated (Homo sapiens, UniProt P00519, T315I); assay: KinomeScan; assay type: binding; details: read-out: % control
# T19 construct: purchased DiscoveRx KINOMEscan
# [22] = target: T20, FLT3(D835H) (Homo sapiens, UniProt P36888, D835H); assay: KinomeScan; assay type: binding; details: read-out: % control
# T20 construct: purchased DiscoveRx KINOMEscan
# [23] = target: T21, PAK4 (Homo sapiens, UniProt O96013); assay: KinomeScan; assay type: binding; details: read-out: % control
# T21 construct: purchased DiscoveRx KINOMEscan
# [24] = target: T22, FAK (Homo sapiens, UniProt Q05397); assay: KinomeScan; assay type: binding; details: read-out: % control
# T22 construct: purchased DiscoveRx KINOMEscan
# [25] = target: T23, FYN (Homo sapiens, UniProt P06241); assay: KinomeScan; assay type: binding; details: read-out: % control
# T23 construct: purchased DiscoveRx KINOMEscan
# [26] = target: T24, CASK (Homo sapiens, UniProt O14936); assay: KinomeScan; assay type: binding; details: read-out: % control
# T24 construct: purchased DiscoveRx KINOMEscan
# T24 sequence (O14936 whole entry): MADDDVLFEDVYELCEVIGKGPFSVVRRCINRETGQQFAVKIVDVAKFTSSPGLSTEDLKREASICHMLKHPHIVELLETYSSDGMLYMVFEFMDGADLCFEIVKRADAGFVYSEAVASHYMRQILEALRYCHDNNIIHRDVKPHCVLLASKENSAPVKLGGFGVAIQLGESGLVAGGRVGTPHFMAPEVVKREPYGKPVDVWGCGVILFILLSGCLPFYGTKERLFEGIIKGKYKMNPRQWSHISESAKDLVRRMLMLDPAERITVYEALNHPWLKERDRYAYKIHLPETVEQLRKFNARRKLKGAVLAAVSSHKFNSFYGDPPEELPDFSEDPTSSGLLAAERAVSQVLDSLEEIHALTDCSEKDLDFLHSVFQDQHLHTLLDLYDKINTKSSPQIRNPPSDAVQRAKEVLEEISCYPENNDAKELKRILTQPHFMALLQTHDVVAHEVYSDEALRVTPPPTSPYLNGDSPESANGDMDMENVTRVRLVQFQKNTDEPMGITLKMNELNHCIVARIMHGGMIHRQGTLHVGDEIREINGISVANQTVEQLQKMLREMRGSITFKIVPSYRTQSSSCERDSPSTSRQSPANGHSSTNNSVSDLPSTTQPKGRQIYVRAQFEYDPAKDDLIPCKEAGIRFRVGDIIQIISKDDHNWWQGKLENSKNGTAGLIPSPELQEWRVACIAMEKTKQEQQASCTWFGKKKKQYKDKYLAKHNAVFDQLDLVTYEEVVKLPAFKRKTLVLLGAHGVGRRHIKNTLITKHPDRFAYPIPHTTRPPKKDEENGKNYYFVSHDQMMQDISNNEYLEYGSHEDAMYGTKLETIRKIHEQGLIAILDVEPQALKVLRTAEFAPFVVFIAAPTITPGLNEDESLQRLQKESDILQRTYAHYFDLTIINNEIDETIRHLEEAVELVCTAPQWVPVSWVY
# [27] = target: T25, CDK8 (Homo sapiens, UniProt P49336); assay: KinomeScan; assay type: binding; details: read-out: % control
# T25 construct: purchased DiscoveRx KINOMEscan
# [28] = target: T26, TXK (Homo sapiens, UniProt P42681); assay: KinomeScan; assay type: binding; details: read-out: % control
# T26 construct: purchased DiscoveRx KINOMEscan
# [29] = target: T27, DCAMKL1 (Homo sapiens, UniProt O15075); assay: KinomeScan; assay type: binding; details: read-out: % control
# T27 construct: purchased DiscoveRx KINOMEscan
# [30] = tested on: EGFR(L747-T751del,Sins); assay: KinomeScan; assay type: binding; details: 1μM
# [31] = target: T28, PRKD1 (Homo sapiens, UniProt Q15139); assay: KinomeScan; assay type: binding; details: read-out: % control
# T28 construct: purchased DiscoveRx KINOMEscan
# [32] = target: T29, MLCK (Homo sapiens, UniProt Q32MK0); assay: KinomeScan; assay type: binding; details: read-out: % control
# T29 construct: purchased DiscoveRx KINOMEscan
# [33] = target: T30, EGFR(E746-A750del) (Homo sapiens, UniProt P00533, DEL746-750); assay: KinomeScan; assay type: binding; details: read-out: % control
# T30 construct: purchased DiscoveRx KINOMEscan
# [34] = target: T31, JNK2 (Homo sapiens, UniProt P45984); assay: KinomeScan; assay type: binding; details: read-out: % control
# T31 construct: purchased DiscoveRx KINOMEscan
# [35] = target: T32, KIT-autoinhibited (Homo sapiens, UniProt P10721); assay: KinomeScan; assay type: binding; details: read-out: % control
# T32 construct: purchased DiscoveRx KINOMEscan
# [36] = target: T33, TRKA (Homo sapiens, UniProt P04629); assay: KinomeScan; assay type: binding; details: read-out: % control
# T33 construct: purchased DiscoveRx KINOMEscan
# T33 sequence (P04629 33-796): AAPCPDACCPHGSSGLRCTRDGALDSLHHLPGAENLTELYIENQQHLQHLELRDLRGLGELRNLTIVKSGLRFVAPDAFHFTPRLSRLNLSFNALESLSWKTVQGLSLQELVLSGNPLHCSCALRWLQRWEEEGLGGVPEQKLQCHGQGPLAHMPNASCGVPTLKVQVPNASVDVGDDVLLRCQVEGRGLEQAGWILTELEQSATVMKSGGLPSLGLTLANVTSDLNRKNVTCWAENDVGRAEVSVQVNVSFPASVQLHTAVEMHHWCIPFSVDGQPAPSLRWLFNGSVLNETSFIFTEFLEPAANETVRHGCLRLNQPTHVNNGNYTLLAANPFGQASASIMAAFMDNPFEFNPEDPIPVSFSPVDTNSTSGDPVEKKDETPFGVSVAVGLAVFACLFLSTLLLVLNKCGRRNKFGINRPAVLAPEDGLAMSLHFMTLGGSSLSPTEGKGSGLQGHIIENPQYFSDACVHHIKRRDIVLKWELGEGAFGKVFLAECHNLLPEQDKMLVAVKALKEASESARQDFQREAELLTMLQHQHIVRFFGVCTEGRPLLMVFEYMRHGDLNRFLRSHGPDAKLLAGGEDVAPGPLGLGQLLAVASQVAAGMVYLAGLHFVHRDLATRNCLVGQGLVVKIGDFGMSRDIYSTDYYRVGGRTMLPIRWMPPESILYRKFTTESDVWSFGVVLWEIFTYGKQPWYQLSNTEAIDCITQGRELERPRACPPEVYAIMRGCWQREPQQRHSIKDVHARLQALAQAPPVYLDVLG
# [37] = tested on: BaF3-TEL-EGFR-T790M-C797S; assay: Anti-proliferation, BaF3 isogenic cell lines (CellTiter-Glo); assay type: cell-based; details: Mus musculus, 72 hours, triplet testing
# [38] = target: T34, PIK3CD (Homo sapiens, UniProt O00329); assay: KinomeScan; assay type: binding; details: read-out: % control
# T34 construct: purchased DiscoveRx KINOMEscan
# [39] = target: T35, SGK2 (Homo sapiens, UniProt Q9HBY8); assay: KinomeScan; assay type: binding; details: read-out: % control
# T35 construct: purchased DiscoveRx KINOMEscan
# T35 sequence (Q9HBY8 whole entry): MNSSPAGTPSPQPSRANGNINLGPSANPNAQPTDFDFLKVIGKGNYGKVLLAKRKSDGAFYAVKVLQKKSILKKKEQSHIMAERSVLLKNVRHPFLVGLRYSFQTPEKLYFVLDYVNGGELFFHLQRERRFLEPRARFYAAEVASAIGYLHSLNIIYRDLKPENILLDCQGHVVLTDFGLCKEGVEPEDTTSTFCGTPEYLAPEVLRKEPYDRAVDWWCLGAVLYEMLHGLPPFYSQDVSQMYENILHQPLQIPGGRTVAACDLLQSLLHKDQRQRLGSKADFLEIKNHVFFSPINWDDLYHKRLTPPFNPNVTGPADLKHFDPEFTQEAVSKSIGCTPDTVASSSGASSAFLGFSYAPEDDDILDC
# [40] = target: T36, MYLK4 (Homo sapiens, UniProt Q86YV6); assay: KinomeScan; assay type: binding; details: read-out: % control
# T36 construct: purchased DiscoveRx KINOMEscan
# [41] = target: T37, PIK3C2G (Homo sapiens, UniProt O75747); assay: KinomeScan; assay type: binding; details: read-out: % control
# T37 construct: purchased DiscoveRx KINOMEscan
# [42] = target: T38, CAMK2D (Homo sapiens, UniProt Q13557); assay: KinomeScan; assay type: binding; details: read-out: % control
# T38 construct: purchased DiscoveRx KINOMEscan
# [43] = target: T39, JAK3(JH1domain-catalytic) (Homo sapiens, UniProt P52333); assay: KinomeScan; assay type: binding; details: read-out: % control
# T39 construct: JAK3(JH1domain-catalytic); purchased DiscoveRx KINOMEscan
# T39 sequence (P52333 822-1124 limits assumed): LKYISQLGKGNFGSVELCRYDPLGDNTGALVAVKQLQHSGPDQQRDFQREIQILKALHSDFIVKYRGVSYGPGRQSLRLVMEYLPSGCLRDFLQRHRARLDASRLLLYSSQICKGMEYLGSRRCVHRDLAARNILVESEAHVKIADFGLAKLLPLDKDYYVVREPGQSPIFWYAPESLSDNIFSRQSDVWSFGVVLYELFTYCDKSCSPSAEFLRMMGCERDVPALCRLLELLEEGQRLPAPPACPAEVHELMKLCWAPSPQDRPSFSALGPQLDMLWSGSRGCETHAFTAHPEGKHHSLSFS
compound,measurement,setting,value
C=CC(=O)N1CCC[C@@H](n2nc(-c3ccc(OCc4cccc(C)n4)c(Cl)c3)c3c(N)ncnc32)C1 [CHMFL-EGFR-26],remaining binding at 1 µM,[1],88%
same,remaining binding at 1 µM,[2],100%
same,remaining binding at 1 µM,[3],61%
same,remaining binding at 1 µM,[4],85%
same,GI50,[5],< 0.0003 µM
same,remaining binding at 1 µM,[6],95%
same,remaining binding at 1 µM,[7],94%
same,remaining binding at 1 µM,[8],100%
same,remaining binding at 1 µM,[9],91%
same,remaining binding at 1 µM,[10],91%
same,remaining binding at 1 µM,[11],90%
same,remaining binding at 1 µM,[12],100%
same,remaining binding at 1 µM,[13],95%
same,remaining binding at 1 µM,[14],83%
same,remaining binding at 1 µM,[15],100%
same,remaining binding at 1 µM,[16],100%
same,remaining binding at 1 µM,[17],100%
same,remaining binding at 1 µM,[18],100%
same,GI50,[19],> 10 µM
same,remaining binding at 1 µM,[20],85%
same,remaining binding at 1 µM,[21],100%
same,remaining binding at 1 µM,[22],100%
same,remaining binding at 1 µM,[23],94%
same,remaining binding at 1 µM,[24],90%
same,remaining binding at 1 µM,[25],90%
same,remaining binding at 1 µM,[26],95%
same,remaining binding at 1 µM,[27],92%
same,remaining binding at 1 µM,[28],15%
same,remaining binding at 1 µM,[29],88%
same,% control,[30],21%
same,remaining binding at 1 µM,[31],85%
same,remaining binding at 1 µM,[32],100%
same,remaining binding at 1 µM,[33],34%
same,remaining binding at 1 µM,[34],59%
same,remaining binding at 1 µM,[35],95%
same,remaining binding at 1 µM,[36],55%
same,GI50,[37],3.7 µM
same,remaining binding at 1 µM,[38],100%
same,remaining binding at 1 µM,[39],100%
same,remaining binding at 1 µM,[40],100%
same,remaining binding at 1 µM,[41],100%
same,remaining binding at 1 µM,[42],91%
same,remaining binding at 1 µM,[43],0.7%

# From paper PMC5392334, “Discovery and characterization of a novel irreversible EGFR mutants selective and potent kinase inhibitor CHMFL-EGFR-26 with a distinct binding mode” (Oncotarget, 2017)
